Measurements taken from patent publication US9938273B2 (Plexxikon Inc., priority 2015, dated 2018).
pIC50: −log10 of the molar value.

Test system: MOLM-14 D835Y cells, FLT3 ITD and FLT3 D835Y
Test: Cell proliferation assay (CellTiter-Glo), MOLM-14 D835Y
Format: cell-based
Settings: Homo sapiens, 72 h, 3d-Growth, GMean
Text: The FLT3 inhibitors may be assessed using the MOLM-14, Acute Myeloid Leukemia cell line that endogenously expresses FLT3 ITD or derivatives of the human FLT3 AML cell line which acquired the D835Y (activation loop) of F691L (gatekeeper) mutation after selection in escalating doses of the FLT3 Inhibitor AC220. FLT3 inhibitors may also be assessed using cells that are engineered to express mutant FLT3. For engineered cells, murine Ba/F3 cells were transfected with full-length FLT3 ITD/D835Y mutations. The parental BA/F3 cells are dependent upon Interleukin-3 (IL-3) for survival, and introduction of the FLT3 constructs rendered these cells dependent upon FLT3 kinase activity when cultured in the absences of IL-3. Engineered BA/F3 cell growth assays can be performed in either the […] of IL-3, to assess the compound inhibition of FLT3 or to detect the presence of off-target activity, respectively. Inhibitors of FLT3 kinase activity reduce or eliminate the FLT3 oncogenic signaling, resulting in reduced cell proliferation. This inhibition is measured as a function of compound concentration to asses IC50 values.
Cell lines used in proliferation assays are as follows in Table 3:
Cells were seeded at 1×10^4 cells per well of a 96 well cell culture plate in 50 μl of cell culture medium. Compounds were dissolved in DMSO, typically at a concentration of 0.5 mM and were serially diluted 1:3 for a total of eight points and added to the cells to final concentrations of […], 0.0041, 0.0014 and 0.00046 μM in 100 μl cell culture medium (final concentration 0.2% DMSO). […] The cells were incubated at 37° C., 5% CO2 for three days. CellTiter-Glo Buffer (Promega Cell Viability Assay catalog #G7573) and substrate were equilibrated to room temperature, and enzyme/substrate Recombinant Firefly Luciferase/Beetle Luciferin was reconstituted. The cell plates were equilibrated to room temperature for 30 minutes, then lysed by addition of an equivalent volume of the Celltiter-Glo Reagent. The plate was mixed for 10 minutes on a plate shaker to lyse the cells. The plates were read on a Tecan M1000 using Luminescence protocol modified to read 0.1 s per well. The luminescence reading assesses the ATP content, which correlates directly with cell number such that the reading as a function of compound concentration was used to determine the IC50 value.

pIC50, 5.00 to 10.00:
N#CCCNC(=O)c1cccc(-c2cnc3[nH]c(-c4ccccc4)cc3c2)n1 [Compound P-0099, N-(2-cyanoethyl)-6-(2-phenyl-1H-pyrrolo[2,3-b]pyridin-5-yl)pyridine-2-carboxamide]
N#CC1(CNC(=O)c2cccc(-c3cnc4[nH]c(-c5ccccc5)c(Cl)c4c3)n2)CC1 [Compound P-0148, 6-(3-chloro-2-phenyl-1H-pyrrolo[2,3-b]pyridin-5-yl)-N-[(1-cyanocyclopropyl)methyl]pyridine-2-carboxamide]
N#CCCNC(=O)c1cccc(-c2cnc3[nH]c(-c4ccccc4)c(Cl)c3c2)n1 [Compound P-0125, 6-(3-chloro-2-phenyl-1H-pyrrolo[2,3-b]pyridin-5-yl)-N-(2-cyanoethyl)pyridine-2-carboxamide]
O=C(NC1(C(F)(F)F)CCCC1)c1cccc(-c2cnc3[nH]c(-c4ccccc4)cc3c2)n1 [Compound P-0149, 6-(2-phenyl1H-pyrrolo[2,3-b]pyridin-5-yl)-N-[1-(trifluoromethyl)cyclopentyl]pyridine-2-carboxamide]
C#Cc1cc2cc(-c3cccc(C(=O)NC(C)(C)C#N)n3)cnc2[nH]1 [Compound P-0175, N-(1-cyano-1-methyl-ethyl)-6-(2-ethynyl-1H-pyrrolo[2,3-b]pyridin-5-yl)pyridine-2-carboxamide]
N#CC1CCN(S(=O)(=O)c2cccc(-c3cnc4[nH]c(-c5ccccc5)cc4c3)n2)C1 (stereo not shown) [Compound P-0121, 1-[[6-(2-phenyl-1H-pyrrolo[2,3-b]pyridin-5-yl)-2-pyridyl]sulfonyl]pyrrolidine-3-carbonitrile]
N#CC1CCN(C(=O)c2cccc(-c3cnc4[nH]c(C5=CCOCC5)c(Cl)c4c3)n2)C1 (stereo not shown) [Compound P-0142, 1-[6-[3-chloro-2-(3,6-dihydro-2H-pyran-4-yl)-1H-pyrrolo[2,3-b]pyridin-5-yl]pyridine-2-carbonyl]pyrrolidine-3-carbonitrile]
O=C(c1cccc(-c2cnc3[nH]c(-c4ccccc4)cc3c2)n1)N1CCC(F)(F)C1 [Compound P-0093, (3,3-difluoropyrrolidin-1-yl)-[6-(2-phenyl-1H-pyrrolo[2,3-b]pyridin-5-yl)-2-pyridyl]methanone]
O=C(NC1(CO)CC1)c1cccc(-c2cnc3[nH]c(-c4ccccc4)cc3c2)n1 [Compound P-0151, N-[1-(hydroxymethyl)cyclopropyl]-6-(2-phenyl-1H-pyrrolo[2,3-b]pyridin-5-yl)pyridine-2-carboxamide]
CC(C)(C#N)CNC(=O)c1cccc(-c2cnc3[nH]c(-c4ccccc4)cc3c2)n1 [Compound P-0100, N-(2-cyano-2-methyl-propyl)-6-(2-phenyl-1H-pyrrolo[2,3-b]pyridin-5-yl)pyridine-2-carboxamide]
CNC(=O)C1CCN(C(=O)c2cccc(-c3cnc4[nH]c(-c5ccccc5)cc4c3)n2)C1 (stereo not shown) [Compound P-0096, N-methyl-1-[6-(2-phenyl-1H-pyrrolo[2,3-b]pyridin-5-yl)pyridine-2-carbonyl]pyrrolidine-3-carboxamide]
CC(C)(C#N)CNC(=O)c1cccc(-c2cnc3[nH]c(-c4ccccc4)c(I)c3c2)n1 [Compound P-0127, N-(2-cyano-2-methyl-propyl)-6-(3-iodo-2-phenyl-1H-pyrrolo[2,3-b]pyridin-5-yl)pyridine-2-carboxamide]
N#CC1CCN(C(=O)c2cccc(-c3cnc4[nH]c(C5=CCCCC5)cc4c3)n2)C1 (stereo not shown) [Compound P-0120, 1-[6-[2-(cyclohexen-1-yl)-1H-pyrrolo[2,3-b]pyridin-5-yl]pyridine-2-carbonyl]pyrrolidine-3-carbonitrile]
CC(C)(C)OC(=O)N1CC=C(c2cc3cc(-c4cccc(C(=O)N5CCC(C#N)C5)n4)cnc3[nH]2)C1 (stereo not shown) [Compound P-0135, tert-butyl 3-[5-[6-(3-cyanopyrrolidine-1-carbonyl)-2-pyridyl]-1H-pyrrolo[2,3-b]pyridin-2-yl]-2,5-dihydropyrrole-1-carboxylate]
N#Cc1cccc(-c2cc3cc(-c4cccc(C(=O)N5CCC(C#N)C5)n4)cnc3[nH]2)c1 (stereo not shown) [Compound P-0133, 1-[6-[2-(3-cyanophenyl)-1H-pyrrolo[2,3-b]pyridin-5-yl]pyridine-2-carbonyl]pyrrolidine-3-carbonitrile]
CS(=O)(=O)N1CCC(NS(=O)(=O)c2cccc(-c3cnc4[nH]c(-c5ccccc5)cc4c3)n2)C1 (stereo not shown) [Compound P-0107, N-(1-methylsulfonylpyrrolidin-3-yl)-6-(2-phenyl-1H-pyrrolo[2,3-b]pyridin-5-yl)pyridine-2-sulfonamide]
CC(C)(C#N)CNC(=O)c1cccc(-c2cnc3[nH]c(-c4ccnc(C5CC5)c4)cc3c2)n1 [Compound P-0152, N-(2-cyano-2-methyl-propyl)-6-[2-(2-cyclopropyl-4-pyridyl)-1H-pyrrolo[2,3-b]pyridin-5-yl]pyridine-2-carboxamide]
CC(C)(C#N)CNC(=O)c1cccc(-c2cnc3[nH]c(-c4ccccc4)c(Br)c3c2)n1 [Compound P-0126, 6-(3-bromo-2-phenyl-1H-pyrrolo[2,3-b]pyridin-5-yl)-N-(2-cyano-2-methyl-propyl)pyridine-2-carboxamide]
N#C[C@H]1CCN(C(=O)c2cccc(-c3cnc4[nH]c(-c5ccccc5)cc4c3)n2)C1 [Compound P-0117, (3S)-1-[6-(2-phenyl-1H-pyrrolo[2,3-b]pyridin-5-yl)pyridine-2-carbonyl]pyrrolidine-3-carbonitrile]
COC1CCN(C(=O)c2cccc(-c3cnc4[nH]c(-c5ccccc5)cc4c3)n2)C1 (stereo not shown) [Compound P-0095, (3-methoxypyrrolidin-1-yl)-[6-(2-phenyl-1H-pyrrolo[2,3-b]pyridin-5-yl)-2-pyridyl]methanone]
Cn1cc(-c2cc3cc(-c4cccc(C(=O)NCC(C)(C)C#N)n4)cnc3[nH]2)ccc1=O [Compound P-0155, N-(2-cyano-2-methyl-propyl)-6-[2-(1-methyl-6-oxo-3-pyridyl)-1H-pyrrolo[2,3-b]pyridin-5-yl]pyridine-2-carboxamide]
CC(C)(NC(=O)c1cccc(-c2cnc3[nH]c(C4=CCN(C(=O)C5CC5)C4)cc3c2)n1)C(N)=O [Compound P-0179, N-(2-amino-1,1-dimethyl-2-oxo-ethyl)-6-[2-[1-(cyclopropanecarbonyl)-2,5-dihydropyrrol-3-yl]-1H-pyrrolo[2,3-b]pyridin-5-yl]pyridine-2-carboxamide]
N#CC1CCN(C(=O)c2cccc(-c3cnc4[nH]c(-c5ccccc5)cc4c3)n2)C1 (stereo not shown) [Compound P-0105, 1-[6-(2-phenyl-1H-pyrrolo[2,3-b]pyridin-5-yl)pyridine-2-carbonyl]pyrrolidine-3-carbonitrile]
CN(CCC#N)C(=O)c1cccc(-c2cnc3[nH]c(-c4ccccc4)cc3c2)n1 [Compound P-0119, N-(2-cyanoethyl)-N-methyl-6-(2-phenyl-1H-pyrrolo[2,3-b]pyridin-5-yl)pyridine-2-carboxamide]
Cn1cncc1C#Cc1cc2cc(-c3cccc(C(=O)NC(C)(C)C#N)n3)cnc2[nH]1 [Compound P-0177, N-(1-cyano-1-methyl-ethyl)-6-[2-[2-(3-methylimidazol-4-yl)ethynyl]-1H-pyrrolo[2,3-b]pyridin-5-yl]pyridine-2-carboxamide]
Cc1cc(C#N)ccc1-c1cc2cc(-c3cccc(C(=O)N4CCC(C#N)C4)n3)cnc2[nH]1 (stereo not shown) [Compound P-0130, 1-[6-[2-(4-cyano-2-methyl-phenyl)-1H-pyrrolo[2,3-b]pyridin-5-yl]pyridine-2-carbonyl]pyrrolidine-3-carbonitrile]
Cc1cc(-c2cc3cc(-c4cccc(C(=O)NC(C)(C)C#N)n4)cnc3[nH]2)cnn1 [Compound P-0163, N-(1-cyano-1-methyl-ethyl)-6-[2-(6-methylpyridazin-4-yl)-1H-pyrrolo[2,3-b]pyridin-5-yl]pyridine-2-carboxamide]
O=C(c1cccc(-c2cnc3[nH]c(-c4ccccc4)cc3c2)n1)N1CCC(n2ccnc2)C1 (stereo not shown) [Compound P-0097, (3-imidazol-1-ylpyrrolidin-1-yl)-[6-(2-phenyl-1H-pyrrolo[2,3-b]pyridin-5-yl)-2-pyridyl]methanone]
